# Data: BindingDB's records for doi:10.1021/bi100299r (Riken Systems and Structural Biology Center, 2010)
# Target: Lysine-specific histone demethylase 1A (Homo sapiens, UniProt O60341)
# Assay: LSD1 Inhibition Assay
# Source text: The kinetic inhibition parameters of LSD1 demethylase inhibition were obtained using the peroxidase-coupled reaction method.
row,Compound,IC50
1,CC(C)COc1ccc(Cl)cc1C1CC1N (centres undefined),14.9 µM
2,NC1CC1c1cc(F)ccc1-c1ccccc1 (centres undefined) [S1310],> 50 µM
3,NC1CC1c1cc(Cl)ccc1OCc1ccccc1 (centres undefined) [S1401],> 30 µM
4,CC(C)COc1c(Cl)cc(Cl)cc1C1CC1N (centres undefined) [S1502],> 50 µM
5,NC1CC1c1ccc(OCc2ccccc2)cc1OCc1ccccc1 (centres undefined) [S1601],> 30 µM
6,CC(C)COc1ccc(C2CC2N)c(OCC(C)C)c1 (centres undefined) [S1602],> 30 µM
7,NC1CC1c1ccc(OCC2CCCCC2)cc1OCC1CCCCC1 (centres undefined) [S1603],> 30 µM
8,NCc1cccc(COc2c(F)cc(F)cc2C2CC2N)c1 (centres undefined) [S2107],4.1 µM
9,COc1cccc(COc2c(F)cc(F)cc2C2CC2N)c1 (centres undefined) [S2206],> 30 µM
